{"source": "patent US8114991B2", "about": "“Amino-1,3,5-triazines N-substituted with chiral bicyclic radicals, process for their preparation, compositions thereof, and their use as herbicides and plant growth regulators” (Bayer Cropscience AG, priority 2003, dated 2012)", "key": {"[1]": {"system": "harmful plants such as Stellaria media, Lolium multiforum, Amaranthus retroflexus, Sinapis alba, Avena sativa and Setaria viridis", "test": "Pre-emergence effect on weeds (greenhouse pot test)", "assay_type": "in vivo", "conditions": "application rate of 1 kg or less of active ingredient per hectare; scored after 3 to 4 weeks by comparison with untreated controls", "description": "Seeds or rhizome pieces of monocotyledonous and dicotyledonous weed plants were placed in sandy loam in plastic pots and covered with soil. The compounds according to the invention, which were formulated in the form of wettable powders or emulsion concentrates, were then applied to the surface of the soil cover as aqueous suspension or emulsion at various dosages with an application rate of 600 to 800 l of water per ha (converted).\nAfter the treatment, the pots were placed into a greenhouse and kept under good growth conditions for the weeds. The plant or emergence damage was scored visually after the test plants have emerged after an experimental time of 3 to 4 weeks by comparison with untreated controls."}, "[2]": {"system": "harmful plants such as Sinapis alba, Echinochloa crus-galli, Lolium multiflorum, Stellaria media, Cyperus iria, Amaranthus retroflexus, Setaria viridis, Avena …", "test": "Post-emergence effect on weeds (greenhouse pot test)", "assay_type": "in vivo", "conditions": "application rate of 2 kg or less of active ingredient per hectare; treated in the three-leaf stage; scored after approx. 3 to 4 weeks by comparison with untreated controls"}}, "data": [{"molecule": "C[C@H]1Cc2ccccc2[C@@H]1Nc1nc(N)nc(C(F)(F)F)n1", "note": "[Compound 7.239]", "values": [{"measurement": "pre-emergence control of harmful plants (plant or emergence damage scored visually)", "setting": "[1]", "value": "very good pre-emergence control"}, {"measurement": "herbicidal post-emergence activity against harmful plants (scored visually)", "setting": "[2]", "value": "very good herbicidal post-emergence activity"}]}, {"molecule": "CCc1ccc2c(c1)[C@H](Nc1nc(N)nc([C@@H](C)F)n1)CC2", "note": "[Compound 1.68]", "values": [{"measurement": "pre-emergence control of harmful plants (plant or emergence damage scored visually)", "setting": "[1]", "value": "very good pre-emergence control"}, {"measurement": "herbicidal post-emergence activity against harmful plants (scored visually)", "setting": "[2]", "value": "very good herbicidal post-emergence activity"}]}, {"molecule": "C[C@@H](F)c1nc(N)nc(N[C@@H]2CCc3ccc(F)cc32)n1", "note": "[Compound 1.3]", "values": [{"measurement": "pre-emergence control of harmful plants (plant or emergence damage scored visually)", "setting": "[1]", "value": "very good pre-emergence control"}, {"measurement": "herbicidal post-emergence activity against harmful plants (scored visually)", "setting": "[2]", "value": "very good herbicidal post-emergence activity"}]}, {"molecule": "C[C@H](F)c1nc(N)nc(N[C@@H]2CCc3ccccc32)n1", "note": "[Compound 3.1]", "values": [{"measurement": "pre-emergence control of harmful plants (plant or emergence damage scored visually)", "setting": "[1]", "value": "very good pre-emergence control"}, {"measurement": "herbicidal post-emergence activity against harmful plants (scored visually)", "setting": "[2]", "value": "very good herbicidal post-emergence activity"}]}, {"molecule": "Cc1nc(N)nc(N[C@@H]2CCc3cc(C)c(C)cc32)n1", "note": "[Compound 8.7]", "values": [{"measurement": "pre-emergence control of harmful plants (plant or emergence damage scored visually)", "setting": "[1]", "value": "very good pre-emergence control"}, {"measurement": "herbicidal post-emergence activity against harmful plants (scored visually)", "setting": "[2]", "value": "very good herbicidal post-emergence activity"}]}, {"molecule": "CCc1nc(N)nc(N[C@@H]2CCCc3ccc(C)cc32)n1", "note": "[Compound 8.35]", "values": [{"measurement": "pre-emergence control of harmful plants (plant or emergence damage scored visually)", "setting": "[1]", "value": "very good pre-emergence control"}, {"measurement": "herbicidal post-emergence activity against harmful plants (scored visually)", "setting": "[2]", "value": "very good herbicidal post-emergence activity"}]}, {"molecule": "Cc1ccc2c(c1)[C@H](Nc1nc(N)nc(C(C)(C)F)n1)CCC2", "note": "[Compound 8.206]", "values": [{"measurement": "pre-emergence control of harmful plants (plant or emergence damage scored visually)", "setting": "[1]", "value": "very good pre-emergence control"}, {"measurement": "herbicidal post-emergence activity against harmful plants (scored visually)", "setting": "[2]", "value": "very good herbicidal post-emergence activity"}]}, {"molecule": "Cc1cc(C)c2c(c1)[C@H](Nc1nc(C)nc(N)n1)CCC2", "note": "[Compound 8.15]", "values": [{"measurement": "pre-emergence control of harmful plants (plant or emergence damage scored visually)", "setting": "[1]", "value": "very good pre-emergence control"}, {"measurement": "herbicidal post-emergence activity against harmful plants (scored visually)", "setting": "[2]", "value": "very good herbicidal post-emergence activity"}]}, {"molecule": "CC(C)(F)c1nc(N)nc(N[C@@H]2CCOc3c(F)cccc32)n1", "note": "[Compound 8.237]", "values": [{"measurement": "pre-emergence control of harmful plants (plant or emergence damage scored visually)", "setting": "[1]", "value": "very good pre-emergence control"}, {"measurement": "herbicidal post-emergence activity against harmful plants (scored visually)", "setting": "[2]", "value": "very good herbicidal post-emergence activity"}]}, {"molecule": "Nc1nc(N[C@@H]2CCc3ccccc32)nc(C2(Cl)CC2)n1", "note": "[Compound 8.183]", "values": [{"measurement": "pre-emergence control of harmful plants (plant or emergence damage scored visually)", "setting": "[1]", "value": "very good pre-emergence control"}, {"measurement": "herbicidal post-emergence activity against harmful plants (scored visually)", "setting": "[2]", "value": "very good herbicidal post-emergence activity"}]}, {"molecule": "CCC(F)c1nc(N)nc(NC2CCCc3c(C)cc(C)cc32)n1", "note": "(mixture of isomers) [Compound 10.68]", "values": [{"measurement": "pre-emergence control of harmful plants (plant or emergence damage scored visually)", "setting": "[1]", "value": "very good pre-emergence control"}, {"measurement": "herbicidal post-emergence activity against harmful plants (scored visually)", "setting": "[2]", "value": "very good herbicidal post-emergence activity"}]}, {"molecule": "C[C@@H](F)c1nc(N)nc(N[C@@H]2CCCc3ccccc32)n1", "note": "[Compound 1.11]", "values": [{"measurement": "pre-emergence control of harmful plants (plant or emergence damage scored visually)", "setting": "[1]", "value": "very good pre-emergence control"}, {"measurement": "herbicidal post-emergence activity against harmful plants (scored visually)", "setting": "[2]", "value": "very good herbicidal post-emergence activity"}]}, {"molecule": "Nc1nc(CCl)nc(N[C@@H]2CCCc3ccccc32)n1", "note": "[Compound 8.117]", "values": [{"measurement": "pre-emergence control of harmful plants (plant or emergence damage scored visually)", "setting": "[1]", "value": "very good pre-emergence control"}, {"measurement": "herbicidal post-emergence activity against harmful plants (scored visually)", "setting": "[2]", "value": "very good herbicidal post-emergence activity"}]}, {"molecule": "Cc1ccc2c(c1)[C@H](Nc1nc(C)nc(N)n1)[C@@H](C)C2", "note": "[Compound 7.2]", "values": [{"measurement": "pre-emergence control of harmful plants (plant or emergence damage scored visually)", "setting": "[1]", "value": "very good pre-emergence control"}, {"measurement": "herbicidal post-emergence activity against harmful plants (scored visually)", "setting": "[2]", "value": "very good herbicidal post-emergence activity"}]}, {"molecule": "Cc1cc(C)c2c(c1)[C@H](Nc1nc(N)nc([C@H](C)F)n1)CCC2", "note": "[Compound 3.15]", "values": [{"measurement": "pre-emergence control of harmful plants (plant or emergence damage scored visually)", "setting": "[1]", "value": "very good pre-emergence control"}, {"measurement": "herbicidal post-emergence activity against harmful plants (scored visually)", "setting": "[2]", "value": "very good herbicidal post-emergence activity"}]}]}
